These results are taken from patent publication US8703754B2, “6-amino-2-{[(1S)-1-methylbutyl]oxy}-9-[5-(1-piperidinyl)-7,9-dihydro-8H-purin-8-one maleate” (GlaxoSmithKline LLC, priority 2010, dated 2014).

The subject of data set [1] is Interferon-α. The experiment in a line: Induction of Interferon-α using cryopreserved human PBMCs. It is filed as cell-based. The settings on record: PBMC, 24 hours, normalised to 1 μM resiquimod and DMSO, read-out: mean pEC50 for induction of IFN-α (converted).
Method: Assay for the Induction of Interferon-α Using Cryopreserved Human Peripheral Blood Mononuclear Cells (PBMCs)
Serial 2-fold dilutions with DMSO were prepared and 0.25 μl dispensed into 384-well clear Greiner polypropylene plates.
Blood samples of up to 200 mL were obtained from healthy human donors. Whole blood in 25 mL volumes was overlaid onto 15 mL Ficoll gradients in Leucosep tubes, and centrifuged at 1000 g for 20 min. Cells in the band at the plasma/histopaque interface were carefully removed and washed twice with PBS (centrifuged at 400 g for 5 min to harvest). The final pellet was resuspended in freezing medium (90% Heat-inactivated serum, 10% DMSO) to a cell concentration of 4×10^7 cells/mL. The resuspended cells were then cryopreserved (frozen) using a rate controlled freezer, and stored at −140° C. for up to 4 months.
Incubation and Assay for Interferon-α
Immediately prior to assay, vials of cryopreserved (frozen) PBMCs were thawed rapidly in a water bath at 37° C. A 1:10 dilution of the cells in trypan blue was prepared and counted. […]
A multi-isoform immunoassay was used to quantify IFN-α in PBMC supernatants. […] Following three washes with PBS, 30 μl of ×2 T buffer (MSD) was added to each well and the plate was read on an MSD Sector 6000 plate reader. […]
Data set [2] deals with Interferon-α. The experiment in a line: Induction of Interferon-α using fresh human PBMCs. The format is cell-based. As to conditions: PBMC, 24 hr, relative to 2 μM resiquimod control, read-out: mean pEC50 for induction of IFN-α (converted). How it is done:
(§1) Assay for the Induction of Interferon-α and TNF-α Using Fresh Human Peripheral Blood Mononuclear Cells (PBMCs)
(§2) 1 μL of test compound was transferred into 96-well tissue culture plates using a Biomek FX. Each compound was assayed in duplicate for each donor. Each plate contained a dilution series of the TLR7/8 agonist resiquimod as standard and Column 11 contained 1 μL of 200 μM resiquimod (giving a 2 μM final concentration, used to define the approximate maximal response to resiquimod).
(§3) Blood samples from two human donors were collected into sodium heparin (10 U/mL). 25 mL volumes of whole blood were overlaid onto 15 mL Histopaque in Leucosep tubes which were centrifuged at 800 g for 20 min and the band at the plasma/histopaque interface carefully removed. The collected cells were centrifuged at 2500 rpm for 10 min and the pellet resuspended in 10 mL of media (RPMI 1640 (Low endotoxin) supplemented with 10% v/v foetal calf serum (FCS, low endotoxin) 100 U/mL penicillin G, 100 μg/mL streptomycin, 10 mM L-glutamine and 1× non-essential amino acids). A 1:20 dilution of the cells was prepared using trypan blue and the cells counted using a haemocytometer.
(§4) Incubation and Assays for Interferon-α and TNF-α

The next data set deals with TNF-α. In words: Induction of TNF-α using fresh human PBMCs. The format is cell-based. The settings on record: PBMC, 24 hr, relative to 2 μM resiquimod control, read-out: mean pEC50 for induction of TNF-α (converted). As for the experimental part: as §1, §2, §3, §4
The subject of another data set is IL-5. In words: Allergen-driven cytokine assay using fresh human PBMCs from atopic volunteers (IL-5). The format is cell-based. The settings on record: 0.04 μM; PBMCs from three allergic donors, 10 ug/mL Timothy Grass antigen, up to 6 days. How it is done:
(§5) Allergen-driven Cytokine Assay Using Fresh Human Peripheral Blood Mononuclear Cells (PBMCs) from Atopic Volunteers
(§6) An assay based on co-culture of atopic human donor derived peripheral blood mononuclear cells (PBMCs) with allergen and test compounds was developed. After 5-6 days culture, cell supernatants were assayed for a range of cytokines.
(§7) Each compound was assayed in triplicate at all concentrations.
(§8) Defibrinated human blood from volunteers known to be allergic to Timothy grass was centrifuged at 2500 rpm for 15 minutes. The upper layer of serum was collected and heat-inactivated at 56° C. for 30 minutes (HI-autologous serum). The lower layer of cells was resuspended in 50 mL PBS (+Ca +Mg), 25 mL diluted blood were overlaid onto 20 mL Lymphoprep in 50 ml tubes then centrifuged at 2500 rpm for 20 minutes at RT. The band at the serum/Lymphoprep interface was carefully removed. The collected cells were washed with PBS and re-suspended at 4×10^6 per mL in growth medium with HI-autologous serum. PBMCs were seeded at 0.4×10^6 cells per well in flat-bottomed 96 well plates in the presence of 10 ug/mL Timothy Grass antigen (Alk Abello) and test compounds at appropriate concentrations in a total volume of 200 μL.
(§9) Incubation and Cytokine Assays
(§10) Plates were incubated at 37° C. in 5% CO2 for up to 6 days. The cell medium from each well was harvested and stored at −20° C. prior to analysis.

Another data set deals with IL-13. The experiment in a line: Allergen-driven cytokine assay using fresh human PBMCs from atopic volunteers (IL-13). The format is cell-based. As to conditions: 0.04 μM; PBMCs from three allergic donors, 10 ug/mL Timothy Grass antigen, up to 6 days. As for the experimental part:
as §5, §6, §7, §8, §9, §10

Data set [3] deals with Interferon-α. The experiment in a line: Induction of Interferon-α following intranasal dosing in the mouse. The format is in vivo. As to conditions: female BALB/c mice, 2 hours after dosing, ELISA. How it is done: Assay for the Induction of Interferon-α Following Intranasal Dosing in the Mouse
The compound of Reference Example 1 was dissolved in 0.2% Tween 80 in saline and administered intranasally (5 μL in total between the nostrils) to female BALB/c mice (n=6) under general anaesthesia. Animals were euthanased 2 hours after dosing and a terminal blood sample was taken and serum levels of Interferon-a measured using an ELISA assay.

Data set [4] is described as follows: Stability testing under ICH Q1A(R2) and Q1B conditions. As to conditions: ICH Q1A(R2) stability and Q1B photostability conditions. The format is physicochemical.

Some results are limits rather than exact numbers.

As to `CCC[C@H](C)Oc1nc(N)c2[nH]c(=O)n(CCCCCN3CCCCC3)c2n1` [Reference Example 1, 6-Amino-2-{[(1S)-1-methylbutyl]oxy}-9-[5-(1-piperidinyl)pentyl]-7,9-dihydro-8H-purin-8-one], the values for the EC50 in the data set on Interferon-α [1], with Interferon-α [2] and with TNF-α were < 5.01 nM, ≤ 1 nM and ≥ 316 nM, respectively. The “reduction of production of the Th2 cytokine IL-5 compared to the allergen control” value with IL-5 is ≥ 50%. For the same molecule, the “reduction of production of the Th2 cytokine IL-13 compared to the allergen control” value in the data set on IL-13 was ≥ 50%. The “mean serum levels of Interferon-α” value with Interferon-α [3] is recorded as 21029 pg/mL.
`CCC[C@H](C)Oc1nc(N)c2[nH]c(=O)n(CCCCCN3CCCCC3)c2n1.O=C(O)/C=C\C(=O)O` [Example 2, 6-Amino-2-{[(1S)-1-methylbutyl]oxy}-9-[5-(1-piperidinyl)pentyl]-7,9-dihydro-8H-purin-8-one, Maleate Salt]: in data set [4], the “degradation under stability testing” value is “no significant degradation”.
